Usually inhibition in vivo stands for the share of the control response that was lost under treatment. Lower therefore signals little suppression. Usually ED50 stands for the dose at which the effect has come halfway, by size or by number of responders.

This note sets out measurements from patent publication US5137890A, “4-phenyl tetrahydropyrido(4,3-d)pyrimidines” (Ortho Pharmaceutical Corporation, priority 1990, dated 1992).

In one assay the test system is Ethanol-Induced Lesions. The assay can be described thus: Cytoprotection: inhibition of ethanol-induced lesions. The assay is classed as in vivo, male, Charles River rats. The note with it: Rattus norvegicus, oral, 1 hour before 50% ethanol. How it is done:
Using the procedures of Robert, A. et al., Gastroenterology 77, 433(1979), male, Charles River rats weighing between 140 and 220 g were fasted overnight, but allowed water ad libitum. The rats were, however, deprived of water during the experiment. The rats were weighed and pretreated orally with the example compounds at the doses shown below in Table 1. One hour later, the necrotizing agent, 50% ethanol, was administered orally in a dose volume of 1 ml/animal. After an additional hour, the rats were sacrificed with CO2, the stomachs removed, inflated with distilled water, opened along the greater curvature and laid out on a flat surface. The presence of mucosal bleeding was noted and after wiping off the mucosa, the presence of submucosal bleeding was also noted. The incidence of lesions in the mucosa and the submucosa was statistically analyzed by the method of Chisquares using Yates correction.

A further assay has as its system 80 mg/kg aspirin. The assay can be described thus: Cytoprotection vs. 80 mg/kg aspirin (footnotes of Table 1). It counts as in vivo.

Where a name gives a salt, the structure may show the parent alone.

On to `CC(=O)N1CCc2nc(C)nc(-c3ccc(Cl)cc3)c2C1` [Example 1, 6-Acetyl-4-(4-chlorophenyl)-2-methyl-5,6,7,8-tetrahydropyrido[4,3-d]pyrimidine], for which the inhibition in vivo at 10 mg/kg with Ethanol-Induced Lesions worked out at 20%.

In the assay on Ethanol-Induced Lesions, `CCNc1nc2c(c(-c3ccc(Cl)cc3)n1)CN(CC)CC2` [Example 11, 4-(4-Chlorophenyl)-6-ethyl-2-ethylamino-5,6,7,8-tetrahydropyrido[4,3-d]pyrimidine] returned a 50% effective dose (ED50) of 9.5 mg/kg.

As for `CCNc1nc2c(c(-c3ccc(F)cc3)n1)CNCC2.Cl` [Example 12, 2-Ethylamino-4-(4-fluorophenyl)5,6,7,8-tetrahydropyrido[4,3-d]pyrimidine Monohydrochloride], the “8/10 vs. 80 mg/kg aspirin” value in the assay with 80 mg/kg aspirin (at 10 mg/kg vs. 80 mg/kg aspirin) was 8/10. In addition, in the assay on Ethanol-Induced Lesions, the ED50 came to 4.7 mg/kg. In the case of `C=CCN1CCc2nc(NCC)nc(-c3ccc(Cl)cc3)c2C1` [Example 9, 6-Allyl-4-(4-chlorophenyl)-2-ethylamino-5,6,7,8-tetrahydropyrido[4,3-d]pyrimidine], 10 mg/kg produced 80% inhibition in vivo in the assay on Ethanol-Induced Lesions.

In turn, `CCCN(CCC)c1nc2c(c(-c3ccc(C)cc3)n1)CN(C(C)=O)CC2` [Example 25, 6-Acetyl-5,6,7,8-tetrahydro-4-(4-methylphenyl) -2-dipropylaminopyrido[4,3-d]-pyrimidine Monohydrate] showed an inhibition in vivo at 10 mg/kg in the assay on Ethanol-Induced Lesions of 40%.

`C=CCN1CCc2nc(N)nc(-c3ccc(Cl)cc3)c2C1.Cl.Cl` [Example 20, 6-Allyl-2-amino-4-(4-chlorophenyl)-5,6,7,8-tetrahydropyrido[4,3-d]pyrimidine Dihydrochloride] registered an ED50 in the assay with Ethanol-Induced Lesions of 7.9 mg/kg. `CC(=O)N1CCc2nc(N)nc(-c3ccc(F)cc3)c2C1` [Example 14, 6-Acetyl-2-amino-4-(4-fluorophenyl)-5,6,7,8-tetrahydropyrido[4,3-d]pyrimidine Monohydrate] displayed an inhibition in vivo at 10 mg/kg with Ethanol-Induced Lesions of 80%. Consider `CCN1CCc2nc(N)nc(-c3ccc(F)cc3)c2C1` [Example 18, 2-Amino-4-(4-fluorophenyl)-6-ethyl-5,6,7,8-tetrahydropyrido[4,3-d]pyrimidine], for which the “8/10 v. 80 mg/kg aspirin” value in the assay on 80 mg/kg aspirin (at 40 mg/kg v. 80 mg/kg aspirin) is on record as 8/10. It took a dose of 3.7 mg/kg to reach the 50% effect level in the assay with Ethanol-Induced Lesions (ED50). In the case of `CCN1CCc2nc(Nc3ccc(C(F)(F)F)cc3)nc(-c3ccc(Cl)cc3)c2C1` [Example 5, 4-(4-chlorophenyl)-6-ethyl-2-(4-trifluromethylphenylamino)-5,6,7,8-tetrahydropyrido[4,3-d]pyrimidine dihydrochloride monohydrate], testing at 10 mg/kg in the assay on Ethanol-Induced Lesions gave an inhibition in vivo of 20%. Regarding `CCN1CCc2nc(N)nc(-c3ccc(Cl)cc3)c2C1.Cl.Cl` [Example 17, 2-Amino-4-(4-chlorophenyl)-6-ethyl-5,6,7,8-tetrahydropyrido[4,3-d]pyrimidine Dihydrochloride], the ED50 with 80 mg/kg aspirin is 14.5 mg/kg; with Ethanol-Induced Lesions, 3.2 mg/kg. With `Nc1nc2c(c(-c3ccc(F)cc3)n1)CNCC2` [Example 16, 2-amino-4-(4-fluorophenyl)-5,6,7,8-tetrahydropyrido[4,3-d]pyrimidine dihydrochloride hemihydrate], the inhibition in vivo at 10 mg/kg in the assay on Ethanol-Induced Lesions amounted to 80%. Turning to `CCN(CC)CCN1CCc2nc(N)nc(-c3ccc(F)cc3)c2C1` [Example 26, 2-Amino-6-(2-diethylaminoethyl)-4-(4-fluorophenyl)-5,6,7,8-tetrahydropyrido[4,3-d]pyrimidine Trihydrochloride], at 10 mg/kg the inhibition in vivo in the assay on Ethanol-Induced Lesions was 80%. Compound `Nc1nc2c(c(-c3ccc(Cl)cc3)n1)CNCC2` [Example 15, 2-Amino-4-(4-chlorophenyl)-5,6,7,8-tetrahydropyrido[4,3-d]pyrimidine Dihydrochloride] had an inhibition in vivo at 10 mg/kg in the assay with Ethanol-Induced Lesions of 40%.

In the assay with Ethanol-Induced Lesions, `CCNc1nc2c(c(-c3ccc(F)cc3)n1)CN(C(C)=O)CC2` [Example 7, 6-Acetyl-4-(4-fluorophenyl)-2-ethylamino-5,6,7,8-tetrahydropyrido[4,3-d]pyrimidine] displayed an ED50 of 5 mg/kg.

Turning to `CCCN1CCc2nc(N)nc(-c3ccc(Cl)cc3)c2C1` [Example 19, 2-Amino-4-(4-chlorophenyl)-6-propyl-5,6,7,8-tetrahydropyrido[4,3-d]-pyrimidine Dihydrochloride 1/4 Hydrate], in the assay with Ethanol-Induced Lesions, the ED50 came out at 2.7 mg/kg. As to `CC(=O)N1CCc2nc(C)nc(-c3ccc(C)cc3)c2C1` [Example 24, 6-Acetyl-2-methyl-4-(4-methylphenyl)-5,6,7,8-tetrahydropyrido[4,3-d]pyrimidine Monohydrate], the inhibition in vivo at 10 mg/kg with Ethanol-Induced Lesions stood at 40%. For the compound `CC(=O)N1CCc2nc(C)nc(-c3ccc(F)cc3)c2C1` [Example 2, 6-Acetyl-4-(4-fluorophenyl)-2-methyl-5,6,-7,8-tetrahydropyrido[4,3-d]pyrimidine Monohydrochloride Monohydrate], the “8/10 vs. 80 mg/kg aspirin” value with 80 mg/kg aspirin (at 20 mg/kg vs. 80 mg/kg aspirin) was 8/10. Also, the inhibition in vivo at 10 mg/kg in the assay with Ethanol-Induced Lesions is 100%. Take `CC(=O)N1CCc2nc(N)nc(-c3ccc(Cl)cc3)c2C1` [Example 13, 6-Acetyl-2-amino-4-(4-chlorophenyl)-5,6,7,8-tetrahydropyrido[4,3-d]pyrimidine]: in the assay with Ethanol-Induced Lesions, the ED50 was about 3 mg/kg. Same read-out and setting: in the case of `C=CCN1CCc2nc(N)nc(-c3ccc(F)cc3)c2C1.Cl.Cl` [Example 21, 6-Allyl-2-amino-4-(4-fluorophenyl)-5,6,7,8-tetrahydropyrido[4,3-d]pyrimidine Dihydrochloride] it was 5 mg/kg. As for `CCNc1nc2c(c(-c3ccc(Cl)cc3)n1)CN(Cc1ccccc1)CC2` [Example 10, 6-Benzyl-4-(4-chlorophenyl)-2-ethylamino-5,6,7,8-tetrahydropyrido[4,3-d]pyrimidine], in the assay with Ethanol-Induced Lesions, the inhibition in vivo at 10 mg/kg was found to be 20%. Turning to `CC(=O)N1CCc2nc(N)nc(-c3ccccc3)c2C1.O` [Example 23, 6-Acetyl-2-amino-4-phenyl-5,6,7,8-tetrahydropyrido[4,3-d]pyrimidine Monohydrate], the ED50 came out at 9.5 mg/kg in the assay on 80 mg/kg aspirin and 2.3 mg/kg with Ethanol-Induced Lesions. In the assay on Ethanol-Induced Lesions, `CN1CCc2nc(N)nc(-c3ccc(Cl)cc3)c2C1` [Example 22, 2-Amino-4-(4-chlorophenyl)-6-methyl-5,6,7,8-tetrahydropyrido[4,3-d]pyrimidine 1/4 Hydrate] gave an inhibition in vivo at 10 mg/kg of 100%. Consider `CN(C)CCCN1CCc2nc(N)nc(-c3ccc(F)cc3)c2C1` [Example 27, Trihydrochloride], for which, in the assay on Ethanol-Induced Lesions, the ED50 was about 7 mg/kg.
